# Results as given in ChEMBL document CHEMBL5046286, “Discovery of MAP855, an Efficacious and Selective MEK1/2 Inhibitor with an ATP-Competitive Mode of Action” (J Med Chem, 2022).
# Activity calls are given as the source filed them. The calls are words filed in the database; no cut-off is given here.
# Columns and labels:
# [1] = Permeability in PBS at pH 6.8 incubated for 5 hrs by PAMPA method; type: ADME; settings: pH 6.8, 5 h
# [2] = Solubility of compound in water at pH 6.8 by shake flask method based HPLC/UV analysis; type: physicochemical
# [3] = Solubility of compound in FaSSIF at pH 6.8 by shake flask method based HPLC/UV analysis; type: physicochemical
# [4] = Octanol-water partition coefficient, logP of the compound by LC-MS analysis; type: physicochemical
# [5] = Dissociation constant, pKa of compound; type: physicochemical
# [6] = target: Cytochrome P450 3A4 (Homo sapiens, UniProt P08684); test: Inhibition of CYP3A4 (unknown origin); type: ADME
# [7] = Inhibition of ERK phosphorylation in human A-375 cells incubated for 3 hrs by DELFIA assay; type: cell-based; settings: A-375, 3 h
# [8] = target: High affinity nerve growth factor receptor (Homo sapiens, UniProt P04629); test: Inhibition of wild-type human partial length TRKA (G475 to G790 residues) expressed in mammalian expression system by Kinomescan method
# [9] = Oral bioavailability in Wistar rat at 10 mg/kg measured up to 24 hrs by LC-MS/MS analysis; type: ADME, organism-based; settings: in vivo, 10 mg/kg, 24 h
# [10] = test system: Mus musculus; test: In vivo inhibition of ERK phosphorylation in human A-375 cells xenografted CD1 mouse at 30 mg/kg bid via oral gavage measured after 8 hrs by ELISA method; type: functional, organism-based
# [11] = test system: Mus musculus; test: In vivo inhibition of MEK phosphorylation in human A-375 cells xenografted CD1 mouse at 30 mg/kg bid via oral gavage measured after 8 hrs by ELISA method; type: functional, organism-based
# [12] = test system: Mus musculus; test: In vivo inhibition of DUSP6 in human A-375 cells xenografted CD1 mouse at 30 mg/kg bid via oral gavage measured after 8 hrs by RT-PCR method; type: functional, organism-based
# [13] = test system: Mus musculus; test: In vivo inhibition of SPRY4 in human A-375 cells xenografted CD1 mouse at 30 mg/kg bid via oral gavage measured after 8 hrs by RT-PCR method; type: functional, organism-based
# [14] = Toxicity in CD1 mouse xenografted with human A-375 cells assessed as body weight loss at 30 mg/kg bid via oral gavage; type: organism-based; settings: in vivo
# [15] = Volume of distribution at steady state in CD1 mouse at 3 mg/kg, iv measured up to 24 hrs by LC-MS/MS analysis; type: ADME, organism-based; settings: in vivo, read-out: Vdss
# [16] = AUC in CD1 mouse at 10 mg/kg, po measured up to 24 hrs by LC-MS/MS analysis; type: ADME, organism-based; parameters: route oral, dose 10 mg/kg, time <=24; settings: in vivo
# [17] = Oral bioavailability in CD1 mouse at 10 mg/kg measured up to 24 hrs by LC-MS/MS analysis; type: ADME, organism-based; settings: in vivo
# [18] = Volume of distribution at steady state in Wistar rat at 3 mg/kg, iv measured up to 24 hrs by LC-MS/MS analysis; type: ADME, organism-based; settings: in vivo, read-out: Vdss
# [19] = AUC in Wistar rat at 10 mg/kg, po measured up to 24 hrs by LC-MS/MS analysis; type: ADME, organism-based; parameters: route oral, dose 10 mg/kg, time <=24; settings: in vivo
# [20] = Volume of distribution at steady state in Beagle dog at 3 mg/kg, iv measured up to 24 hrs by LC-MS/MS analysis; type: ADME, organism-based, Canis lupus familiaris; settings: in vivo, read-out: Vdss
# [21] = AUC in Beagle dog at 10 mg/kg, po measured up to 24 hrs by LC-MS/MS analysis; type: ADME, organism-based, Canis lupus familiaris; parameters: route oral, dose 10 mg/kg, time <=24; settings: in vivo
# [22] = Oral bioavailability in Beagle dog at 10 mg/kg measured up to 24 hrs by LC-MS/MS analysis; type: ADME, organism-based, Canis lupus familiaris; settings: in vivo
# [23] = target: Mitogen-activated protein kinase 1 (Homo sapiens) (UniProt P28482); test: Inhibition of full length human ERK2 using LCB-FFKNIVTPRTPPP as substrate preincubated for 45 mins followed by substrate addition and measured after 90 mins; settings: time 135.0 min
# [24] = test system: Serine/threonine-protein kinase B-raf (Homo sapiens), P15056 [V600E]; test: Inhibition of full length human BRAF V599E mutant using LCB-FFKNIVTPRTPPP as substrate preincubated for 45 mins followed by substrate addition and measured after 90 mins; settings: time 135.0 min
# [25] = target: T1, Dual specificity mitogen-activated protein kinase kinase 1 (Homo sapiens, UniProt Q02750); settings: time 120.0 min
# [26] = Clearence in CD-1 mouse at 3 mg/kg, iv; type: ADME, organism-based; settings: in vivo
# [27] = target: T1, Dual specificity mitogen-activated protein kinase kinase 1; test: Inhibition of full-length human MEK1 by TR-FRET assay
# T1 sequence (Q02750 whole entry): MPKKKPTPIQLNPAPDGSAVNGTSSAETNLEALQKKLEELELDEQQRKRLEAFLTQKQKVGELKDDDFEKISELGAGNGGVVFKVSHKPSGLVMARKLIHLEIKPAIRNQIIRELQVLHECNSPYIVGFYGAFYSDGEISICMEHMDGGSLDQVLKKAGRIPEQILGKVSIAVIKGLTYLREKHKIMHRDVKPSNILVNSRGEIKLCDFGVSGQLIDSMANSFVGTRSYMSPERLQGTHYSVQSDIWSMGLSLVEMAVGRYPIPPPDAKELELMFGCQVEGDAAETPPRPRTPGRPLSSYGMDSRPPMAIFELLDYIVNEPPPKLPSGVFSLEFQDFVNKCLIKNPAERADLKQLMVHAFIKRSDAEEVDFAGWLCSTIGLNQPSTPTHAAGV
# Sequence of Cytochrome P450 3A4 (P08684 whole entry): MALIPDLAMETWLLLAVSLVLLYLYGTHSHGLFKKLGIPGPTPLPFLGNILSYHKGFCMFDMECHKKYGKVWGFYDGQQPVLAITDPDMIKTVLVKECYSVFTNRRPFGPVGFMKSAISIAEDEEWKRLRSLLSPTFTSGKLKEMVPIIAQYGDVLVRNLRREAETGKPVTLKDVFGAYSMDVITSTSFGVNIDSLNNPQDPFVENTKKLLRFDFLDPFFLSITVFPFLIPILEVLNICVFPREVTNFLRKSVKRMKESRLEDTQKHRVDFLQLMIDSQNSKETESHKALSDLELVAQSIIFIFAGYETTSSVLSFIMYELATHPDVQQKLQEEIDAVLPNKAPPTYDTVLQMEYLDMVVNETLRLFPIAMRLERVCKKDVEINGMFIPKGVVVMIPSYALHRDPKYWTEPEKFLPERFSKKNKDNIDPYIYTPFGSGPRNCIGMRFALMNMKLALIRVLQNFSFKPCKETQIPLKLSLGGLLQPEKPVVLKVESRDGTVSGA
# Sequence of High affinity nerve growth factor receptor (P04629 whole entry, the tested form may be a part): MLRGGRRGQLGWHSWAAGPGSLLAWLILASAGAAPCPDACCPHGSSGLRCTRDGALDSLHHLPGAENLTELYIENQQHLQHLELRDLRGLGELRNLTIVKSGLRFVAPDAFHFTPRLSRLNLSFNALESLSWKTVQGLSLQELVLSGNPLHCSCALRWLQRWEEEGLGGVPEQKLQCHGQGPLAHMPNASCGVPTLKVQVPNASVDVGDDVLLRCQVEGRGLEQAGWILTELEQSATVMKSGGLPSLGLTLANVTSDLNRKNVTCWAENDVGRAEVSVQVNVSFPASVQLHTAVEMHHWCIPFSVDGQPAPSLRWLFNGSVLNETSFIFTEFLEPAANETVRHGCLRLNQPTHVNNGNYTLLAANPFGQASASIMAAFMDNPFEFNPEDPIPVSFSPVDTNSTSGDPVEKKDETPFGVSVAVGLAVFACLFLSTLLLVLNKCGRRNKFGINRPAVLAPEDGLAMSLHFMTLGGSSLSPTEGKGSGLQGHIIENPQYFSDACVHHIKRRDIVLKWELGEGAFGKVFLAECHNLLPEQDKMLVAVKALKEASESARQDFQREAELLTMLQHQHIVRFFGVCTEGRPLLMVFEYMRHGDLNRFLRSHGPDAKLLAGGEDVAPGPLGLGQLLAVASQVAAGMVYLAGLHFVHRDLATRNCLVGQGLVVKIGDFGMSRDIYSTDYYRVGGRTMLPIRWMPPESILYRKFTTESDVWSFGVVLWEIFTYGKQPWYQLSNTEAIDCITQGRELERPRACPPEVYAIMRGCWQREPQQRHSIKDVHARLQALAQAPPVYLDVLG
# Sequence of Serine/threonine-protein kinase B-raf (Homo sapiens), P15056 [V600E] (P15056 whole entry V600E): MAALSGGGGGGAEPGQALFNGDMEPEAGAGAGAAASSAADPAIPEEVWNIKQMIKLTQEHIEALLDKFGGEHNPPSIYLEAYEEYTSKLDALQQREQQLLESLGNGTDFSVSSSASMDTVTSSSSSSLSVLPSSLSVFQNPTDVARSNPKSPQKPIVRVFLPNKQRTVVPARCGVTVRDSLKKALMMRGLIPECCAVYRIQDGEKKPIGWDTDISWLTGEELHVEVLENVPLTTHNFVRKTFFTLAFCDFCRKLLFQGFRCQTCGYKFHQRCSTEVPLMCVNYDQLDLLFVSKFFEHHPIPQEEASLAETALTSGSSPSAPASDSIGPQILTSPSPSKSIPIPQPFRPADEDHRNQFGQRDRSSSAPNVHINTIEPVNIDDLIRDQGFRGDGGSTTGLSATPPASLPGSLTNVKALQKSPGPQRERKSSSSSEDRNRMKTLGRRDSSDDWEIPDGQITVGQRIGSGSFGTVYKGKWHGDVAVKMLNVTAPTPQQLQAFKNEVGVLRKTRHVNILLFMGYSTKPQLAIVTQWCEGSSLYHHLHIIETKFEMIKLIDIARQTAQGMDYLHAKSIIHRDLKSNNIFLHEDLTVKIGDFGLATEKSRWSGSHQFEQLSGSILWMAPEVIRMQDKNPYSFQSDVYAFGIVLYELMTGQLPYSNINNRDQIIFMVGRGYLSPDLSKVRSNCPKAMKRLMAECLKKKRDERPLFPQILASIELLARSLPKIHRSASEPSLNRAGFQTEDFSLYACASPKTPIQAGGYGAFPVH
# Sequence of Mitogen-activated protein kinase 1 (Homo sapiens) (P28482 whole entry): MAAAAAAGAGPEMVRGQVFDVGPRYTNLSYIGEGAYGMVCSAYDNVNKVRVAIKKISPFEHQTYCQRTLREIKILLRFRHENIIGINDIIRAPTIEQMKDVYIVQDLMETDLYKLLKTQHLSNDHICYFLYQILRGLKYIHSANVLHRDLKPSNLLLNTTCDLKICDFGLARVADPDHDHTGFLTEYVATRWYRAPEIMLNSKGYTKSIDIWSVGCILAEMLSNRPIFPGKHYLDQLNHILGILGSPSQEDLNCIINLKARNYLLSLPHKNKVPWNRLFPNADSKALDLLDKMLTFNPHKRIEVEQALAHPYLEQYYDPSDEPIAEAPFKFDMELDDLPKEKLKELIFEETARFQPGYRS
SMILES,log(permeability) [1],solubility thermodynamic [2] [µM],logP [4],IC50 [6] [µM],EC50 [7] [µM],further results
CC(O)c1nc2cnc3cc(F)c(-c4ccc(Oc5ncccn5)cc4Cl)cc3c2n1C1CCN(CC#N)CC1 (stereo not given),-4.7,< 4,–,–,–,solubility thermodynamic [3]: 22 µM
N#CC[C@]1(N)CC[C@@H](n2cnc3cnc4cc(F)c(-c5ccc(Oc6ncccn6)cc5Cl)cc4c32)CC1,–,–,5.7,5.7,–,–
N#CCN1CCC(n2cnc3cnc4cc(F)c(-c5ccc(Oc6ncccn6)cc5Cl)cc4c32)CC1,-4.5,–,3,–,–,–
Cc1nc2cnc3cc(F)c(-c4ccc(Oc5ncccn5)cc4Cl)cc3c2n1[C@H]1CCN(C(=O)CO)C[C@@H]1F,–,–,1.6,7.7,5,IC50 [8]: 0.025 µM; F [9]: 65%; Activity [10]: Active; Activity [11]: Active; Activity [12]: Active; Activity [13]: Active; Activity [14]: Non-Toxic; Vd [15]: 2.6 L/kg; AUC [16]: 0.4 µM·h; F [17]: 44%; Vd [18]: 2 L/kg; AUC [19]: 0.6 µM·h; Vd [20]: 1.8 L/kg; AUC [21]: 1.4 µM·h; F [22]: 100%; inhibition [23]: inactive; inhibition [24]: inactive; T1/2 [25]: 1.62 h
CC(=O)Nc1cccc(-n2c(=O)n(C3CC3)c(=O)c3c(Nc4ccc(I)cc4F)n(C)c(=O)c(C)c32)c1,–,–,–,–,–,T1/2 [25]: 0.417 h
CC(=O)N1CC[C@H](n2c(C)nc3cnc4cc(F)c(-c5ccc(Oc6ncccn6)cc5Cl)cc4c32)[C@@H](F)C1,–,–,–,–,64,–
CC1(n2cnc3cnc4cc(F)c(-c5ccc(Oc6ncccn6)cc5Cl)cc4c32)CCN(CC#N)CC1,–,–,4.2,1.5,–,IC50 [7]: 0.08 µM; clearance [26]: 35 mL/min/kg
Cc1ccnc(Oc2ccc(-c3cc4c(cc3F)ncc3nc(C)n([C@H]5CCN(C(=O)CO)C[C@@H]5F)c34)c(Cl)c2)n1,–,–,2.6,2,7,–
Cc1cc(Oc2ncccn2)ccc1-c1cc2c(cc1F)ncc1nc(C)n([C@H]3CCN(C(=O)CO)C[C@@H]3F)c12,–,–,2,> 20,19,–

# Further lines, with some results ahead:
log(permeability) [1],solubility thermodynamic [2] [µM],logP [4],IC50 [6] [µM],EC50 [7] [µM],SMILES,further results
-4.5,47,4.8,–,–,Fc1cc2ncc3ncn(C4CCNCC4)c3c2cc1-c1ccc(Oc2ccccn2)cc1Cl,pKa [5]: 8.4
-5,< 4,4.4,–,–,COc1cc(Oc2ccccn2)ccc1-c1cc2c(cc1F)ncc1nc(CO)n(C3CCN(CC#N)CC3)c12,solubility thermodynamic [3]: 7 µM
-4.5,< 4,4.9,–,–,N#CCN1CCC(n2c(CO)nc3cnc4cc(F)c(-c5ccc(Oc6ccccn6)cc5Cl)cc4c32)CC1,solubility thermodynamic [3]: < 4 µM
-4.2,–,5.3,–,–,COc1cc(Oc2ccccn2)ccc1-c1cc2c(cc1F)ncc1ncn(C3CCN(CC#N)CC3)c12,–
-6.9,31,3.2,–,–,COc1cc(Oc2ncccn2)ccc1-c1cc2c(cc1F)ncc1nc(C(C)O)n(C3CCN(CC#N)CC3)c12 (stereo not given),solubility thermodynamic [3]: 42 µM
-4.2,–,5.3,–,0.4,N#CCN1CCC(n2cnc3cnc4cc(F)c(-c5ccc(Oc6ccccn6)cc5Cl)cc4c32)CC1,IC50 [27]: 0.07 µM; pKa [5]: 4.1
–,–,–,–,5.8,N#CCc1ccc(-n2cnc3cnc4cc(F)c(-c5ccc6[nH]ccc6c5)cc4c32)cc1,IC50 [27]: 2.6 µM
